From patent publication US12024584B2, “Methods and compositions for polyurethane dispersions using caprolactam-derived solvents” (AdvanSix Resins & Chemicals LLC, priority 2017, dated 2024)

What was measured:
[1] = Viscosity and storage stability of pigmented PUD formulations; type: physicochemical; conditions: 1 month at 50° C., FIG. 5
Source text: (§1) Tests were first performed to determine the coalescing agent level for pigmented and complete PUD formulations in order to achieve the optimum film formation. Complete paints were mixed with 0.7 wt. %, 1.5 wt. %, 3.0 wt. % and 5.0 wt. % of coalescing agents and applied on tin plated steel at a wet film thickness of around 250 μm, where the weight percentage was based on the pure polyurethane dispersion resins. […] Based on the observations, 3 wt. % dosage of coalescing agent was selected. Complete PUD formulations with pigments, fillers and other additives were prepared as per Table 5, and used to test and determine the coalescing properties of the caprolactam-derived solvents and other known coalescing agents.
Dispersions and emulsions tend to aggregate polyurethane particles during storage. One way to determine the stability of a polyurethane dispersion is to measure viscosity of the polyurethane dispersion over time. Viscosity is a measure of a solvent's resistance to gradual deformation by shear stress or tensile stress. […] The storage stability of the dispersions was evaluated based on variations between viscosity measurements performed on paints shortly after their preparation and after their storage for either one month at room temperature or one month at 50° C.

[2] = Solubility of DMPA in solvents
Method: Solubility was tested between the various solvents to determine their applicability in the PUD manufacturing processes. Solubility is the amount of a substance (coalescing agent) that dissolves in a unit volume of a liquid substance (solvent) to form a saturated solution under specified conditions of temperature and pressure. For the examples, amounts of […] (DMPA) were dissolved in each solvent.

[3] = Scrub resistance of pigmented and complete PUDs (ISO 11998); type: physicochemical
Source text: as §1
Scrub resistance was tested according the ISO 11998 “Paints and Varnishes—Determination of Wet-Scrub Resistance and Cleanability of Coatings” standard. In this testing method, the paint was applied on a test panel (Leneta sheet) using a film applicator at the specific gap clearance. After drying and conditioning for four weeks at room temperature the coated panel was weighed and subject to 200 wet-scrub cycles in a scrub resistance machine. The panel was then washed, dried and weighed to determine the loss from which the mean loss in film thickness was calculated. […] For instance, N-methyl caprolactam (NM CPL), N-ethyl caprolactam (NE CPL), and blends thereof in the ratios of 1:2 and 1:1, all had less loss of thickness (2.035 μm, 1.797 μm, 1.39 μm, and 1.64 μm, respectively) as compared to NMP (2.090 μm) and NBP (2.213 μm).

[4] = Drying time (ASTM D1640 / ASTM D5895); type: physicochemical; conditions: 200 μm humid film; blends by ASTM D1640, single solvents by ASTM D5895
Source text: as §1
The drying times for the pigmented PUD formulations were determined according to the ASTM D1640 “Standard Test Methods for Drying, Curing, or Film Formation of Organic Coatings” standard or the ASTM D5895 “Standard Test Methods for Evaluating Drying or Curing During Film Formation of Organic Coatings Using Mechanical Recorders” standard. Four stages of drying can be identified depending on the trace left by the needle on the paint surface: Stage 1—Set-to-Touch time, Stage 2—Tack-Free time, Stage 3—Dry-Hard time, and Stage IV—Dry trough time. However, Stage IV is often hard to detect.
In general, the paints were applied at a humid film thickness of 200 μm by means of a bar coater on a Leneta sheet and the needle rate was set at 60 cm/hr.
For the present examples, the drying times for the 2:1 A:B, 1:1 A:B, and 1:2 A:B solvents were determined using the ASTM D1640 standard, and the drying times for NM CPL, NE CPL, NMP, NBP, ester amide, and ester alcohol were determined using the ASTM D5895 standard.

[5] = Gloss of pigmented and complete PUDs (ISO 2813); type: physicochemical
Source text: as §1
(§2) Gloss measurements serve as an indicator of the paints surface quality. Gloss and color measurements were determined according to the ISO 2813 standard and the ISO 7724-2 standard (SCI-D65/10°), respectively.

[6] = MFFT of pigmented and complete PUDs; type: physicochemical; conditions: pigmented and complete PUD, 3 wt. % coalescing agent
Source text: as §1, with “agents. The standard test for determining this temperature involves using a MFFT-BAR, as specified by standards ASTM D 2354 and ISO 2115. In general, the MFFT of a paint or coating is reduced temporarily by the use of coalescing agents.” for “agents.”

[7] = Persoz hardness of pigmented and complete PUDs; type: physicochemical; conditions: pigmented, in s
Source text: as §1
Persoz hardness measurements were performed on pigmented paints that were applied on tin plated steel using a doctor blade applicator at a dry film thickness (DFT) around 50 μm according to the ISO 1522 standard. […] For instance, the 28 day hardness for N-ethyl caprolactam (NE CPL) was approximately 104.6±0.5, while the 28 day hardness for NMP was approximately 108.8±2.4, and the 28 day hardness for ester alcohol and N-methyl caprolactam (NM CPL) were approximately 124.8±1 and 126.0±1, respectively, while the 28 day hardness for NBP was approximately 135.8±5.

[8] = Color of pigmented and complete PUDs (ISO 7724-2); type: physicochemical
Source text: as §1, §2

[9] = Freeze and thaw stability (ASTM D2243-95); type: physicochemical
Method: Water-based emulsions and dispersions are susceptible to irreversible coagulation by freezing. Freeze and thaw stability was tested according the ASTM D2243-95 standard.
For these examples, pigmented PUD paints were subject to freeze-thaw cycles of 16 hours at −20° C. and 8 hours at room temperature and subsequently subject to visible observations. The paints were then applied on a tin plated steel plate at a thickness of approximately 200 μm for observing film properties.
In addition, the freeze-thaw stability was best for caprolactam-derived coalescing agents (NM CPL) and the blends even after subject to five cycles (see FIG. 9). In particular, the paints were visually observed after each cycle to see if there was any viscosity change, i.e., thickening of the paint. Then, the dry films of the coatings were observed visually.

[10] = Minimum film forming temperature, non-pigmented resin + coalescing agent; type: physicochemical; conditions: resin with 5 wt. % coalescing agent, film thickness 350 μm
Open time (ASTM D7488) = type: physicochemical; conditions: ASTM D7488, 23±2° C., 50±5% RH, wet film 200 μm
Source text: as §1
Open times were determined according to the ASTM D7488 “Test Method for Open Time of Latex” standard and the tests were performed under controlled temperature and humidity (23±2° C. and 50±5% RH). In general, the paints were applied at a wet film thickness of 200 μm on contrasting sealed charts by means of a doctor blade applicator, and “X” marks are made immediately with the wide curved end of a wooden paint brush. After a determined time internal, the brush was dipped into the paint to be tested and brushing of the X-marks was started in perpendicular direction to the initial drawdown using 10 strokes back and forth to work the paint under test into the drawdown area. This procedure is repeated after several time intervals. After their complete drying (1 week), the painted panels are observed by two different observers and the time for which the “X” marks to become visible is considered as the open time.

CN1CCCCCC1=O [N—MeCPL, N-methyl caprolactam]
storage stability (viscosity buildup) [1]: low viscosity buildup
Solubility [2]: 27.5 g/100 g of Solvent
Wt. Loss ([3]; 200 wet-scrub cycles): 3.763 g/m^2
Loss of thickness after 200 wet-scrub cycles ([3]; calculated from weight loss): 2.035 µm
Drying Time [4]: 11.6 min
Gloss 20° ([5]; 20°): 1.3 ± 0
Gloss 60° ([5]; 60°): 3.0 ± 0
Gloss 85° ([5]; 85°): 23.2 ± 0.2
MFFT [6]: −0.8 °C
Persoz Hardness ([7]; 1 Day): 95.2 ± 1
Persoz Hardness ([7]; 7 Days): 101.2 ± 3
Persoz Hardness ([7]; 14 Days): 122.0 ± 3
Persoz Hardness ([7]; 21 Days): 124.0 ± 3
Persoz Hardness ([7]; 28 Days, listed as NM CPL): ~126.0±1
Persoz Hardness ([7]; 28 Days, listed as NMCPL): 126.0 ± 1
Color (Black background) L* ([8]; Black background): 94.09
Color (Black background) a* ([8]; Black background): −0.97
Color (Black background) b* ([8]; Black background): 2.25
Color (White background) L* ([8]; White background): 95.07
Color (White background) a* ([8]; White background): −0.52
Color (White background) b* ([8]; White background): 3.32
effect on color (yellowing) ([8]; pigmented PUD): no yellowing
freeze-thaw stability and film properties (comparison) ([9]; FIGS. 8 and 9): better freeze-thaw stability and film properties than NBP and ester alcohol
freeze-thaw stability: viscosity change (thickening of the paint) ([9]; cycles of 16 hours at −20° C. and 8 hours at room temperature): no such viscosity change even after five freeze-thaw cycle
MFFT [10]: −0.8±0.4 °C
Open Time (Open time (ASTM D7488)): 14 min
